Experimental data: PubChem BioAssay (NCI)
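Assay format: 96-well plates, 48-hour exposure. Abbreviation: GI50, concentration required for 50% inhibition of growth. TGI denotes the concentration required for complete inhibition of growth.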

Assays:
Assay in all cases: DTP human tumour cell line panel, 48 h
[1] = test system: SK-OV-3 ovarian
[2] = test system: HCC-2998 colon
[3] = test system: OVCAR-4 ovarian
[4] = test system: HOP-92 NSCLC
[5] = test system: SW-620 colon
[6] = test system: UACC-62 melanoma
[7] = test system: HCT-116 colon
[8] = test system: BT-549 breast
[9] = test system: A498 renal
[10] = test system: RPMI-8226 leukemia
[11] = test system: MDA-MB-435
[12] = test system: SK-MEL-5 melanoma
[13] = test system: OVCAR-8 ovarian
[14] = test system: CCRF-CEM leukemia
[15] = test system: SF-539 CNS
[16] = test system: CAKI-1 renal
[17] = test system: COLO 205 colon
[18] = test system: OVCAR-5 ovarian
[19] = test system: SF-295 CNS
[20] = test system: SNB-19 CNS
[21] = test system: SNB-75 CNS
[22] = test system: A549 NSCLC
[23] = test system: NCI/ADR-RES ovarian
[24] = test system: LOX IMVI melanoma
[25] = test system: ACHN renal
[26] = test system: PC-3 prostate
[27] = test system: MOLT-4 leukemia
[28] = test system: SN12C renal
[29] = test system: SK-MEL-2 melanoma
[30] = test system: MCF7 breast
[31] = test system: HCT-15 colon
[32] = test system: K-562 leukemia
[33] = test system: HS 578T breast
[34] = test system: SK-MEL-28 melanoma
[35] = test system: EKVX NSCLC
[36] = test system: SR leukemia
[37] = test system: TK-10 renal
[38] = test system: RXF 393 renal
[39] = test system: NCI-H522 lung
[40] = test system: NCI-H23 lung
[41] = test system: HL-60(TB) leukemia
[42] = test system: SF-268 CNS
[43] = test system: UACC-257 melanoma
[44] = test system: HOP-62 NSCLC
[45] = test system: NCI-H226 lung
[46] = test system: M14 melanoma
[47] = test system: HT29 colon
[48] = test system: NCI-H460 lung
[49] = test system: OVCAR-3 ovarian
[50] = test system: UO-31 renal
[51] = test system: T-47D breast
[52] = test system: U251 CNS
[53] = test system: MDA-MB-231 breast
[54] = test system: MALME-3M melanoma
[55] = test system: DU-145 prostate
[56] = test system: KM12 colon
[57] = test system: 786-0 renal
[58] = test system: IGROV1 ovarian

## Cc1cc(NC(=O)c2ccc(NS(=O)(=O)CCO)cc2N2CCC3(CC2)CC3)nc(N2CCC(F)(F)CC2)n1
[1]
  GI50: 11.1 µM
  TGI: 26 µM
[2]
  GI50: 1.53 µM
  TGI: 17.8 µM
[3]
  GI50: 14.2 µM
  TGI: 27.7 µM
[4]
  GI50: 14.5 µM
  TGI: 29.6 µM
[5]
  GI50: 13.1 µM
  TGI: 27.1 µM
[6]
  GI50: 12.3 µM
  TGI: 24.9 µM
[7]
  GI50: 11.7 µM
  TGI: 26.8 µM
[8]
  GI50: 0.486 µM
  TGI: 17.9 µM
[9]
  GI50: 16.7 µM
  TGI: 31 µM
[10]
  GI50: 9.74 µM
  TGI: 33.4 µM
[11]
  GI50: 0.903 µM
  TGI: 18.5 µM
[12]
  GI50: 2.7 µM
  TGI: 19.7 µM
[13]
  GI50: 0.114 µM
  TGI: 24.4 µM
[14]
  GI50: 10 µM
  TGI: > 66 µM
[15]
  GI50: 0.0776 µM
  TGI: 16 µM
[16]
  GI50: 10.9 µM
  TGI: 23.2 µM
[17]
  GI50: 11 µM
  TGI: 28.4 µM
[18]
  GI50: 11.4 µM
  TGI: 23.6 µM
[19]
  GI50: 12.3 µM
  TGI: 27.3 µM
[20]
  GI50: 2.03 µM
  TGI: 21.6 µM
[21]
  GI50: 1.15 µM
  TGI: 15.6 µM
[22]
  GI50: 14.2 µM
  TGI: 30.4 µM
[23]
  GI50: 0.428 µM
  TGI: 16.1 µM
[24]
  GI50: 7.05 µM
  TGI: 27.3 µM
[25]
  GI50: 13.5 µM
  TGI: 26.4 µM
[26]
  GI50: 7.46 µM
  TGI: 23.6 µM
[27]
  GI50: 12.1 µM
  TGI: 33.1 µM
[28]
  GI50: 11.7 µM
  TGI: 24.4 µM
[29]
  GI50: 15.8 µM
  TGI: 31.1 µM
[30]
  GI50: 8.33 µM
  TGI: 25.2 µM
[31]
  GI50: 4.71 µM
  TGI: 20.5 µM
[32]
  GI50: 3.59 µM
  TGI: > 51.4 µM
[33]
  GI50: 0.746 µM
  TGI: 21.9 µM
[34]
  GI50: 16.8 µM
  TGI: 30.7 µM
[35]
  GI50: 14.2 µM
  TGI: 28.8 µM
[36]
  GI50: 1.68 µM
  TGI: 25.3 µM
[37]
  GI50: 17.7 µM
  TGI: 32.6 µM
[38]
  GI50: 0.26 µM
  TGI: 6.58 µM
[39]
  GI50: 12.9 µM
  TGI: 27.3 µM
[40]
  GI50: 12.6 µM
  TGI: 26.6 µM
[41]
  GI50: 19.4 µM
  TGI: > 57.1 µM
[42]
  GI50: 13.1 µM
  TGI: 29 µM
[43]
  GI50: 16.8 µM
  TGI: 32 µM
[44]
  GI50: 13.7 µM
  TGI: 30.4 µM
[45]
  GI50: 2.09 µM
  TGI: 29.3 µM
[46]
  GI50: 14.3 µM
  TGI: 28.9 µM
[47]
  GI50: 0.0755 µM
  TGI: 14.2 µM
[48]
  GI50: 12.6 µM
  TGI: 26.8 µM
[49]
  GI50: 0.0365 µM
  TGI: 2.49 µM
[50]
  GI50: 11.4 µM
  TGI: 23.8 µM
[51]
  GI50: 12.5 µM
  TGI: 31.8 µM
[52]
  GI50: 1.5 µM
  TGI: 22.7 µM
[53]
  GI50: 0.188 µM
  TGI: 17.6 µM
[54]
  GI50: 13.9 µM
  TGI: 27.8 µM
[55]
  GI50: 0.0531 µM
  TGI: 15.8 µM
[56]
  GI50: 1.7 µM
  TGI: 16.9 µM
[57]
  GI50: 14.9 µM
  TGI: 30.6 µM
[58]
  GI50: 16 µM
  TGI: 30.6 µM

## COc1cc(N2CCC(N3CCN(C)CC3)CC2)ccc1Nc1ncc(Cl)c(Nc2ccccc2P(C)(C)=O)n1
[1]
  GI50: 0.992 µM
  TGI: 5 µM
[2]
  GI50: 3.99 µM
  TGI: > 100 µM
[3]
  GI50: 1.3 µM
  TGI: > 47.6 µM
[4]
  GI50: 0.4 µM
  TGI: 2.41 µM
[5]
  GI50: 1.71 µM
  TGI: 19.6 µM
[6]
  GI50: 2.94 µM
  TGI: > 72.2 µM
[7]
  GI50: 1.09 µM
  TGI: 13.3 µM
[8]
  GI50: 3.07 µM
  TGI: 13.5 µM
[9]
  GI50: 0.305 µM
  TGI: 1.12 µM
[10]
  GI50: 3.89 µM
  TGI: 39.8 µM
[11]
  GI50: 2.94 µM
  TGI: > 100 µM
[12]
  GI50: 11.9 µM
  TGI: > 100 µM
[13]
  GI50: 5.05 µM
  TGI: > 100 µM
[14]
  GI50: 4.41 µM
  TGI: 98 µM
[15]
  GI50: 2.1 µM
  TGI: 7.5 µM
[16]
  GI50: 1.99 µM
  TGI: 9.58 µM
[17]
  GI50: 0.381 µM
  TGI: 2.08 µM
[18]
  GI50: 0.379 µM
  TGI: > 100 µM
[19]
  GI50: 2.85 µM
  TGI: > 100 µM
[20]
  GI50: 3.09 µM
  TGI: > 100 µM
[21]
  GI50: 1.66 µM
  TGI: 4.83 µM
[22]
  GI50: 1.21 µM
  TGI: 14.1 µM
[23]
  GI50: 3 µM
[24]
  GI50: 2.8 µM
[25]
  GI50: 1.12 µM
  TGI: 9.65 µM
[26]
  GI50: 4.19 µM
  TGI: > 100 µM
[27]
  GI50: 4.58 µM
  TGI: > 100 µM
[28]
  GI50: 1.03 µM
  TGI: > 100 µM
[29]
  GI50: 2.67 µM
  TGI: 30.6 µM
[30]
  GI50: 0.414 µM
  TGI: > 100 µM
[31]
  GI50: 2.97 µM
  TGI: > 40.4 µM
[32]
  GI50: 3.45 µM
  TGI: > 100 µM
[33]
  GI50: 2.46 µM
  TGI: 24.1 µM
[34]
  GI50: 18.5 µM
  TGI: > 100 µM
[35]
  GI50: 0.472 µM
  TGI: > 100 µM
[36]
  TGI: > 33.6 µM
[37]
  GI50: 0.296 µM
  TGI: 3.09 µM
[38]
  GI50: 0.642 µM
  TGI: 2.4 µM
[39]
  GI50: 0.759 µM
  TGI: 17.3 µM
[40]
  GI50: 1.62 µM
  TGI: > 100 µM
[41]
  GI50: 1.67 µM
  TGI: > 35.6 µM
[42]
  GI50: 1.34 µM
  TGI: 14 µM
[43]
  GI50: 38.8 µM
  TGI: > 100 µM
[44]
  GI50: 0.797 µM
  TGI: > 32 µM
[45]
  GI50: 0.417 µM
  TGI: 5.21 µM
[46]
  GI50: 2.12 µM
  TGI: > 34 µM
[47]
  GI50: 0.204 µM
  TGI: 4.81 µM
[48]
  GI50: 2.47 µM
  TGI: > 40 µM
[49]
  GI50: 2.15 µM
  TGI: 38.2 µM
[50]
  GI50: 0.734 µM
  TGI: 2.7 µM
[51]
  GI50: > 100 µM
  TGI: > 100 µM
[52]
  GI50: 3.79 µM
  TGI: > 100 µM
[53]
  GI50: 0.625 µM
  TGI: 31.7 µM
[54]
  GI50: 7.66 µM
  TGI: > 100 µM
[55]
  GI50: 0.933 µM
  TGI: 20.5 µM
[56]
  GI50: 2.69 µM
  TGI: > 100 µM
[57]
  GI50: 1.12 µM
  TGI: 7.59 µM
[58]
  GI50: 0.216 µM
  TGI: 0.784 µM
